Laboratory results from ChEMBL document CHEMBL1147578, “Design, synthesis, and SAR of anthranilamide-based factor Xa inhibitors with improved functional activity” (Bioorg Med Chem Lett, 2004).

Tests used:
[1] = target: Vitamin K-dependent protein C (Homo sapiens, UniProt P04070); test: Inhibitory activity against activated protein C
Coagulation factor X = Coagulation factor X (Homo sapiens, UniProt P00742); test: In vitro inhibitory activity against coagulation factor X.
Plasminogen = Plasminogen (Homo sapiens, UniProt P00747); test: Inhibitory activity against plasmin.
[2] = target: Tissue-type plasminogen activator (Homo sapiens, UniProt P00750); test: Inhibitory activity against tissue type plasminogen activator.
Prothrombin = Prothrombin (Homo sapiens, UniProt P00734); test: Inhibitory activity against thrombin.
Serine protease 1 = Serine protease 1 (Homo sapiens, UniProt P07477); test: Inhibitory activity against trypsin.
Homo sapiens = species on record: Homo sapiens; test: Concentration required to double the lag time of maximum thrombin generation in human plasma-based thrombin generation assay; type: functional

Chain of Tissue-type plasminogen activator (P00750 whole entry): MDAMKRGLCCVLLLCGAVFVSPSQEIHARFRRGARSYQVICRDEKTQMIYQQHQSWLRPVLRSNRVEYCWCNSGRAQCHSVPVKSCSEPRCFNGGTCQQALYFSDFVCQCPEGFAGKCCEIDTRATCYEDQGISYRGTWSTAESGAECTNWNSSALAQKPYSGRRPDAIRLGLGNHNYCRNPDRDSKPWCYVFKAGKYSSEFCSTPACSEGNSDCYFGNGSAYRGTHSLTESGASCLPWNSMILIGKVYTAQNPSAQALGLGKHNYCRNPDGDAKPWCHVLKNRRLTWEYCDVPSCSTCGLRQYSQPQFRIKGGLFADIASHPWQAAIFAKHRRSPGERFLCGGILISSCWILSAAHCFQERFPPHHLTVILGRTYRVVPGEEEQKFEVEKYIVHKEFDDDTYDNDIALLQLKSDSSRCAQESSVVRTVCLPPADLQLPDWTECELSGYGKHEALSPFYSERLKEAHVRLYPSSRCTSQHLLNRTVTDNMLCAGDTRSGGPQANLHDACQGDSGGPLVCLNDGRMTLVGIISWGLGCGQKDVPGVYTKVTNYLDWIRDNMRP
Chain of Serine protease 1 (P07477 whole entry): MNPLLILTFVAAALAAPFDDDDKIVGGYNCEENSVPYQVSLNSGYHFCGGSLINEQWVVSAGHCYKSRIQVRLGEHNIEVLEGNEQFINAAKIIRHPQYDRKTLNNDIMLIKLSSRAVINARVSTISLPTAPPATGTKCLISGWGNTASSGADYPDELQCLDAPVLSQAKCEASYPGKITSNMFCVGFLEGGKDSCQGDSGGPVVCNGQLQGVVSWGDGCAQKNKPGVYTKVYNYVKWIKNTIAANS
Chain of Vitamin K-dependent protein C (P04070 43-197 limits assumed): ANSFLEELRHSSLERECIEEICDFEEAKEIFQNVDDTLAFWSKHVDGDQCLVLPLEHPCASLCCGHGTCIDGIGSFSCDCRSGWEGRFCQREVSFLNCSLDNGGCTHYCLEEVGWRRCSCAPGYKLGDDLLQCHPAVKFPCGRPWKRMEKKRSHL
Chain of Vitamin K-dependent protein C (P04070 212-461 limits assumed): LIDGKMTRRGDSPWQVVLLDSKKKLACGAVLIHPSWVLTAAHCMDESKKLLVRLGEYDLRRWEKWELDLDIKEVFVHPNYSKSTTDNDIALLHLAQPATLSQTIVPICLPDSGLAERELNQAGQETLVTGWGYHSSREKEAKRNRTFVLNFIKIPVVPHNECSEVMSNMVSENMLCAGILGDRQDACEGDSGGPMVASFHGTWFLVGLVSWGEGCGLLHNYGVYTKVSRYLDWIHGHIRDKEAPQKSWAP
Chain of Plasminogen (P00747 97-580 limits assumed): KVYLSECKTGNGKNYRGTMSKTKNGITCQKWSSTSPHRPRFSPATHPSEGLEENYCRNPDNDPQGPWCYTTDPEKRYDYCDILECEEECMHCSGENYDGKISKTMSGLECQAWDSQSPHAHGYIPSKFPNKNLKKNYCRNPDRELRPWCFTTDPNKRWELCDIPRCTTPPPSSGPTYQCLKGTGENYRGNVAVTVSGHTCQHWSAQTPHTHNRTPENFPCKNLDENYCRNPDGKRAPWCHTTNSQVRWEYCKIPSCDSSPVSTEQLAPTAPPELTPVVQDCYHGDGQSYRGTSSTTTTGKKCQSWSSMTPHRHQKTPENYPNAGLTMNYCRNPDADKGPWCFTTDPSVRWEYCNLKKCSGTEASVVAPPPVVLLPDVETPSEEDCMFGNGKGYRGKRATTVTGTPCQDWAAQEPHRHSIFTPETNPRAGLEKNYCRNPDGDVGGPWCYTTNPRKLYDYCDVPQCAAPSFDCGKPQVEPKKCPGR
Chain of Plasminogen (P00747 581-810 limits assumed): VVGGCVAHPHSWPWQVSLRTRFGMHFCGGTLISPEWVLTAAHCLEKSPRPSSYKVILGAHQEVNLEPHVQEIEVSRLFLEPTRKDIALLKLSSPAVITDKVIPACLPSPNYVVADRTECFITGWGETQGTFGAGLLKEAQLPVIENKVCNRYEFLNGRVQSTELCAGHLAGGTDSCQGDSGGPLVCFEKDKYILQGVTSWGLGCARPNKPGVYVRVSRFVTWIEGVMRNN
Chain of Coagulation factor X (P00742 41-179 limits assumed): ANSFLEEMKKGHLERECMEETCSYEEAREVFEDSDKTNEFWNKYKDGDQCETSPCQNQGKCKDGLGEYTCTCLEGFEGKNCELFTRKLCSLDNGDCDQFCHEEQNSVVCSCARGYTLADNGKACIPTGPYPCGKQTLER
Chain of Coagulation factor X (P00742 235-488 limits assumed): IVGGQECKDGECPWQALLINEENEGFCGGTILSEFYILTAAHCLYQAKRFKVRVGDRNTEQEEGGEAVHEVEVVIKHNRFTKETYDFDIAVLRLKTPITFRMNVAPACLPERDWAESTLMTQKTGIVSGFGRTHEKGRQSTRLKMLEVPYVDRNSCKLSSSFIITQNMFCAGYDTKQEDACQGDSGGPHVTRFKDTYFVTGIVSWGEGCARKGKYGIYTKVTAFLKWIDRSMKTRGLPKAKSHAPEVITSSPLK

Structure (SMILES)	IC50 [1] [µM]	IC50 (Coagulation factor X) [µM]	IC50 (Plasminogen) [µM]	IC50 [2] [µM]	IC50 (Prothrombin) [µM]	IC50 (Serine protease 1) [µM]	Activity (Homo sapiens) [µM]
CC(=O)NNCc1ccc(C(=O)Nc2ccc(Cl)cc2C(=O)Nc2ccc(Cl)cn2)cc1	> 11	0.04	> 11	> 11	> 11	> 11	–
NC1=NCCCN1Cc1ccc(C(=O)Nc2ccc(Cl)cc2C(=O)Nc2ccc(Cl)cn2)cc1	> 11	0.0038	> 11	> 11	> 11	> 11	–
CN(Cc1ccc(C(=O)Nc2ccc(Cl)cc2C(=O)Nc2ccc(Cl)cn2)cc1)C1=NCCN1	> 11	0.002	> 11	> 11	> 11	> 11	–
CN(CCN(C)C(=N)N)Cc1ccc(C(=O)Nc2ccc(Cl)cc2C(=O)Nc2ccc(Cl)cn2)cc1	> 11	0.002	> 11	> 11	> 11	> 11	–
C[N+]1(Cc2ccc(C(=O)Nc3ccc(Cl)cc3C(=O)Nc3ccc(Cl)cn3)cc2)CCCC1	> 11	0.0023	> 11	> 11	> 11	> 11	–
CC(=N)N(C)CCN(C)Cc1ccc(C(=O)Nc2ccc(Cl)cc2C(=O)Nc2ccc(Cl)cn2)cc1	> 11	0.0011	> 11	> 11	> 11	> 11	–
NC1CCN(Cc2ccc(C(=O)Nc3ccc(Cl)cc3C(=O)Nc3ccc(Cl)cn3)cc2)CC1	> 11	0.015	> 11	> 11	> 11	> 11	–
O=C(Nc1ccc(Cl)cc1C(=O)Nc1ccc(Cl)cn1)c1ccc(CN2CCCC2)cc1	> 11	0.016	> 11	> 11	> 11	> 11	–
CCN(CC)Cc1ccc(C(=O)Nc2ccc(Cl)cc2C(=O)Nc2ccc(Cl)cn2)cc1	> 11	0.035	> 11	> 11	> 11	> 11	–
O=C(Nc1ccc(Cl)cc1C(=O)Nc1ccc(Cl)cn1)c1ccc(C[n+]2ccccc2)cc1	> 11	0.0058	> 11	> 11	> 11	> 11	–
CN(C)CCN(C)Cc1ccc(C(=O)Nc2ccc(Cl)cc2C(=O)Nc2ccc(Cl)cn2)cc1	> 11	0.0069	> 11	> 11	> 11	> 11	–
O=C(Nc1ccc(Cl)cc1C(=O)Nc1ccc(Cl)cn1)c1ccc(CN2CCOCC2)cc1	> 11	0.14	> 11	> 11	> 11	> 11	–
NC(=O)C1CCN(Cc2ccc(C(=O)Nc3ccc(Cl)cc3C(=O)Nc3ccc(Cl)cn3)cc2)CC1	> 11	0.076	> 11	> 11	> 11	> 11	–
NCc1ccc(C(=O)Nc2ccc(Cl)cc2C(=O)Nc2ccc(Cl)cn2)cc1	> 11	0.01	> 11	> 11	> 11	> 11	–
CNCc1ccc(C(=O)Nc2ccc(Cl)cc2C(=O)Nc2ccc(Cl)cn2)cc1	> 11	0.007	> 11	> 11	> 11	> 11	–
C/N=C(/NC)N(C)Cc1ccc(C(=O)Nc2ccc(Cl)cc2C(=O)Nc2ccc(Cl)cn2)cc1	> 11	0.0008	> 11	> 11	> 11	> 11	–
CN(Cc1ccc(C(=O)Nc2ccc(Cl)cc2C(=O)Nc2ccc(Cl)cn2)cc1)C(=N)c1ccccc1	> 11	0.011	> 11	> 11	> 11	> 11	–
O=C(Nc1ccc(Cl)cc1C(=O)Nc1ccc(Cl)cn1)c1ccc(CN2CCNC2=O)cc1	> 11	0.03	> 11	> 11	> 11	> 11	–
COCCN(C)Cc1ccc(C(=O)Nc2ccc(Cl)cc2C(=O)Nc2ccc(Cl)cn2)cc1	> 11	0.053	> 11	> 11	> 11	> 11	–
CC(=N)N1CCN(Cc2ccc(C(=O)Nc3ccc(Cl)cc3C(=O)Nc3ccc(Cl)cn3)cc2)CC1	> 11	0.005	> 11	> 11	> 11	> 11	–
NCc1ccccc1-c1ccc(C(=O)Nc2ccc(Cl)cc2C(=O)Nc2ccc(Cl)cn2)cc1	–	0.0013	–	–	–	–	>5

Structure (SMILES)	IC50 [1] [µM]	IC50 (Coagulation factor X) [µM]	IC50 (Plasminogen) [µM]	IC50 [2] [µM]	IC50 (Prothrombin) [µM]	IC50 (Serine protease 1) [µM]	Activity (Homo sapiens) [µM]
CNCCN(C)Cc1ccc(C(=O)Nc2ccc(Cl)cc2C(=O)Nc2ccc(Cl)cn2)cc1	> 11	0.0068	> 11	> 11	> 11	> 11	–
CN(C)C1=NCCN1Cc1ccc(C(=O)Nc2ccc(Cl)cc2C(=O)Nc2ccc(Cl)cn2)cc1	> 11	0.0013	> 11	> 11	> 11	> 11	–
NNCc1ccc(C(=O)Nc2ccc(Cl)cc2C(=O)Nc2ccc(Cl)cn2)cc1	> 11	0.04	> 11	> 11	> 11	> 11	–
CNC1=NCCN1Cc1ccc(C(=O)Nc2ccc(Cl)cc2C(=O)Nc2ccc(Cl)cn2)cc1	> 11	0.0035	> 11	> 11	> 11	> 11	–
CCOC(=O)C1CCN(Cc2ccc(C(=O)Nc3ccc(Cl)cc3C(=O)Nc3ccc(Cl)cn3)cc2)CC1	> 11	0.171	> 11	> 11	> 11	> 11	–
CN1CCN(Cc2ccc(C(=O)Nc3ccc(Cl)cc3C(=O)Nc3ccc(Cl)cn3)cc2)CC1	> 11	0.015	> 11	> 11	> 11	> 11	–
O=C(Nc1ccc(Cl)cc1C(=O)Nc1ccc(Cl)cn1)c1ccc(CN2CCN=C2S)cc1	> 11	0.035	> 11	> 11	> 11	> 11	–
O=C(Nc1ccc(Cl)cc1C(=O)Nc1ccc(Cl)cn1)c1ccc(CN2CCC(O)CC2)cc1	> 11	0.136	> 11	> 11	> 11	> 11	–
CC(=N)NCc1ccc(C(=O)Nc2ccc(Cl)cc2C(=O)Nc2ccc(Cl)cn2)cc1	> 11	0.0036	> 11	> 11	> 11	> 11	–
O=C(Nc1ccc(Cl)cc1C(=O)Nc1ccc(Cl)cn1)c1ccc(CN2CCCC2=O)cc1	> 11	0.552	> 11	> 11	> 11	> 11	–
N=C(N)NCc1ccc(C(=O)Nc2ccc(Cl)cc2C(=O)Nc2ccc(Cl)cn2)cc1	> 11	0.0014	> 11	> 11	> 11	> 11	–
NC1=NCCCCN1Cc1ccc(C(=O)Nc2ccc(Cl)cc2C(=O)Nc2ccc(Cl)cn2)cc1	> 11	0.0063	> 11	> 11	> 11	> 11	–
CCOC(=O)CN(C)Cc1ccc(C(=O)Nc2ccc(Cl)cc2C(=O)Nc2ccc(Cl)cn2)cc1	> 11	0.176	> 11	> 11	> 11	> 11	–
CN(CC(=O)O)Cc1ccc(C(=O)Nc2ccc(Cl)cc2C(=O)Nc2ccc(Cl)cn2)cc1	> 11	0.156	> 11	> 11	> 11	> 11	–
CCN(C)Cc1ccc(C(=O)Nc2ccc(Cl)cc2C(=O)Nc2ccc(Cl)cn2)cc1	> 11	0.012	> 11	> 11	> 11	> 11	–
CN(CCO)Cc1ccc(C(=O)Nc2ccc(Cl)cc2C(=O)Nc2ccc(Cl)cn2)cc1	> 11	0.082	> 11	> 11	> 11	> 11	–
CN(Cc1ccc(C(=O)Nc2ccc(Cl)cc2C(=O)Nc2ccc(Cl)cn2)cc1)C1=NCCS1	> 11	0.01	> 11	> 11	> 11	> 11	–
O=C(Nc1ccc(Cl)cc1C(=O)Nc1ccc(Cl)cn1)c1ccc(CN2CCC(C(=O)O)CC2)cc1	> 11	0.23	> 11	> 11	> 11	> 11	–
O=C(Nc1ccc(Cl)cc1C(=O)Nc1ccc(Cl)cn1)c1ccc(CN2CCNCC2)cc1	> 11	0.017	> 11	> 11	> 11	> 11	–
CN(Cc1ccc(C(=O)Nc2ccc(Cl)cc2C(=O)Nc2ccc(Cl)cn2)cc1)C1=NCCO1	> 11	0.0015	> 11	> 11	> 11	> 11	–
O=C(Nc1ccc(Cl)cc1C(=O)Nc1ccc(Cl)cn1)c1ccc(CN2CCCCC2)cc1	> 11	0.015	> 11	> 11	> 11	> 11	–
